Here are results for 42 molecules from ChEMBL document CHEMBL1201862, “PubChem BioAssay data set” (2004).

Active and inactive are the calls of the source.

One data set deals with Cytochrome P450 2C9 (Homo sapiens, UniProt P11712).
In a further data set the target is Cytochrome P450 2D6 (Homo sapiens, UniProt P10635).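 Note: CYP2D6 member of a cytochrome P450 panel assay.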
A further data set addresses Cytochrome P450 2C19 (Homo sapiens, UniProt P33261). The data set can be described thus: Cytochrome panel assay with activity outcomes. Panel member name: p450-cyp2c19 Compounds with AC50 equal or less than 10 uM are considered active. Format: functional.
Data set [1] has as its target T1, Corticotropin-releasing factor receptor 2/Corticotropin-releasing factor-binding protein (Homo sapiens, UniProt P24387+Q13324).
T1 sequence (Q13324 whole entry): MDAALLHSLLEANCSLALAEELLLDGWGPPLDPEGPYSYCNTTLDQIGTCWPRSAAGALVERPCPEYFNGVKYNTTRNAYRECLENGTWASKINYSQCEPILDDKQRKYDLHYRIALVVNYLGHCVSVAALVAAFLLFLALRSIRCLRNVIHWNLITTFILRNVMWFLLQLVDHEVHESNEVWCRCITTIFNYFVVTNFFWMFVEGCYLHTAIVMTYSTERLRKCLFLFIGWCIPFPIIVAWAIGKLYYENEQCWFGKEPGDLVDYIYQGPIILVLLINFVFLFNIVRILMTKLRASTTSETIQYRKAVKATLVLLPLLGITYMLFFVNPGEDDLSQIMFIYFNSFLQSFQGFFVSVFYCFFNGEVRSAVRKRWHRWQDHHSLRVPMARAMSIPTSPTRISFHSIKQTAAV
T1 sequence (P24387 whole entry): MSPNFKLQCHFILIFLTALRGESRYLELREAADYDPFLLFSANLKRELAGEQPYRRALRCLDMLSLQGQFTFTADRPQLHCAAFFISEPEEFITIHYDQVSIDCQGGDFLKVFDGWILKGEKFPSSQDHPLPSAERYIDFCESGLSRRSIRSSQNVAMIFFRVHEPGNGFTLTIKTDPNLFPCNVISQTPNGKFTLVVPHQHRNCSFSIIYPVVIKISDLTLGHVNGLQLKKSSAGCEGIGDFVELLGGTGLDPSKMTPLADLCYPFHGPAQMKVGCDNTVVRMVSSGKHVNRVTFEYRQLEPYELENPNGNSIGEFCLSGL
Nature of the data set: Dose Response confirmation of uHTS hits for small molecule antagonists of the CRF-binding protein and CRF-R2 receptor complex. Format: functional. Particulars: read-out: IC50_Mean.

In data set [2] the target is T1, Corticotropin-releasing factor receptor 2/Corticotropin-releasing factor-binding protein. The data set can be described thus: activators of CRF receptor 2 with binding protein – uHTS hits, confirmation (AID 602473). Format: functional. The note with it: read-out: EC50_Mean.
Data set [3] in a line: inhibitors of firefly luciferase expression or activity, dose response, H4 neuroglioma cells, luminescence (AID 1990). The data set is classed as functional, cell-based.
The nature of data set [4]: Luminescence Cell-Based Dose Response HTS to Identify Inhibitors of 5'UTR Stem-Loop Driven Prion Protein mRNA Translation in H4 Neuroglioblastoma Cells. [Related pubchem assays: 1827 (Project Summary), 1813 (Primary HTS)]. Format: functional.
Data set [5] is described as follows: inhibitors of SNCA 5'UTR-driven reporter translation, confirmation, H4 neuroglioma cells, luminescence (AID 1988). The data set is classed as functional, cell-based.
For data set [6], the system named is Streptococcus sp. 'group A'. Nature of the data set: growth inhibition of control SK(-) GAS strain, dose response, counter-screen for streptokinase expression inhibitor project, luminescence, kanamycin, BacTiterGlo, confirmation (AID 1900). The data set is classed as functional, organism-based. For orientation: The purpose of a counterscreen is to sort out artefacts and off-target activity.

Another data set has as its target T2, Streptokinase A (Streptococcus pyogenes serotype M1, UniProt P10520).
T2 sequence (P10520 whole entry): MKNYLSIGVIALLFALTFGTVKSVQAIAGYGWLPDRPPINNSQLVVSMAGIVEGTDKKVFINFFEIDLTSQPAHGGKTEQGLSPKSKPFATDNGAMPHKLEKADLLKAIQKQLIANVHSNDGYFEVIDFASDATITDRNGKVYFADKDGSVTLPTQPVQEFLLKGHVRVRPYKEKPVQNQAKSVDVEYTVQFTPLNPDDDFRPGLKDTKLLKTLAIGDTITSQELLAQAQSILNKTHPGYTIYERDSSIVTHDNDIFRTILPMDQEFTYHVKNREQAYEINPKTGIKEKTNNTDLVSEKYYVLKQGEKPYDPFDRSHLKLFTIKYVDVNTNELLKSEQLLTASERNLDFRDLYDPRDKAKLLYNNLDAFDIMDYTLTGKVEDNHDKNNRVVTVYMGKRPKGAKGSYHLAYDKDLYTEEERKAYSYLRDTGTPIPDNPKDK
Nature of the data set: S. pyogenes streptokinase expression inhibitors, potency, dose response, plasminogen activation absorbance, OD405 (AID 1914).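 Note: secreted streptokinase activity via plasminogen activation per viability signal from cell pellet.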 The data set is classed as functional, Streptococcus pyogenes M1 GAS.

The nature of data set [7]: inhibitors of intracellular T. cruzi replication, confirmation, NIH3T3 host cells, beta-gal luminescence (AID 2044).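 Note: intracellular parasites grown in NIH/3T3 mouse fibroblasts as host cells; luminescent beta-galactosidase reporter signal from transgenic T. cruzi replicating inside host cells; inhibitors lower the luminescence signal.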 Format: functional, cell-based.
Data set [8] can be described thus: cytotoxicity toward NIH3T3 fibroblasts, dose response, counter-screen, cell-based, ATP luminescence, mouse fibroblasts (AID 2010).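 Note: cells exposed to compound for about 90 hours before reading.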 The data set is classed as functional.
The subject of a further data set is Streptococcus. The data set can be described thus: Group A Streptococcus viability loss, dose response, counter-screen for streptokinase expression inhibitor project, luminescence, BacTiterGlo (AID 1915).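 Note: potency for reduction of bacterial viability or growth.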 Format: functional, organism-based.

Sequence of Cytochrome P450 2C9 (P11712 whole entry): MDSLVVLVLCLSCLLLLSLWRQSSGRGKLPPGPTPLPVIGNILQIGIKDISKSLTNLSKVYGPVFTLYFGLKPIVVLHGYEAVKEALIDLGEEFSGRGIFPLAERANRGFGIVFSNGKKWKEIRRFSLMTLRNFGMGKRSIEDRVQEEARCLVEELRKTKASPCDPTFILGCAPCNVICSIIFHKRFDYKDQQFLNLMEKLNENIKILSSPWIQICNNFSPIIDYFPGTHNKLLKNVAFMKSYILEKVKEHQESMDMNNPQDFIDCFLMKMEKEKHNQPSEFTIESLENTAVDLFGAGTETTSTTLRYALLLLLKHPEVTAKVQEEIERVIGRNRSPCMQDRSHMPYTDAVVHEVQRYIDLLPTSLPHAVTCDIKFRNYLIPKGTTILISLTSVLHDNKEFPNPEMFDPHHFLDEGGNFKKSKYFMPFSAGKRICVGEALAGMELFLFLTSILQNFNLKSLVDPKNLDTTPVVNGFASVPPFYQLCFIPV
Sequence of Cytochrome P450 2D6 (P10635 whole entry): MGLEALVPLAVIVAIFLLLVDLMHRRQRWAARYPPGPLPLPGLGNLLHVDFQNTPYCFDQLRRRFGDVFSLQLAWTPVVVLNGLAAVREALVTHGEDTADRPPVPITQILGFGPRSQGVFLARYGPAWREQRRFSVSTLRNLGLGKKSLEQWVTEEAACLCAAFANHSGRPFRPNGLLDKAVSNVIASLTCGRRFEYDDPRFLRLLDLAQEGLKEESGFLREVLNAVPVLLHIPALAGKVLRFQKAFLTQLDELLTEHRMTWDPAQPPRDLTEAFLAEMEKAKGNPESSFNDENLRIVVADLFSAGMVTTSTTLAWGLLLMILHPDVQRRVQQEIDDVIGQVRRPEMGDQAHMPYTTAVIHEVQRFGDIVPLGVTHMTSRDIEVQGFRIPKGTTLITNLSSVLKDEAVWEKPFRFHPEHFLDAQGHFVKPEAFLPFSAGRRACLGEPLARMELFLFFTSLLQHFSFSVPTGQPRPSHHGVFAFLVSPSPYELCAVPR
Sequence of Cytochrome P450 2C19 (P33261 whole entry): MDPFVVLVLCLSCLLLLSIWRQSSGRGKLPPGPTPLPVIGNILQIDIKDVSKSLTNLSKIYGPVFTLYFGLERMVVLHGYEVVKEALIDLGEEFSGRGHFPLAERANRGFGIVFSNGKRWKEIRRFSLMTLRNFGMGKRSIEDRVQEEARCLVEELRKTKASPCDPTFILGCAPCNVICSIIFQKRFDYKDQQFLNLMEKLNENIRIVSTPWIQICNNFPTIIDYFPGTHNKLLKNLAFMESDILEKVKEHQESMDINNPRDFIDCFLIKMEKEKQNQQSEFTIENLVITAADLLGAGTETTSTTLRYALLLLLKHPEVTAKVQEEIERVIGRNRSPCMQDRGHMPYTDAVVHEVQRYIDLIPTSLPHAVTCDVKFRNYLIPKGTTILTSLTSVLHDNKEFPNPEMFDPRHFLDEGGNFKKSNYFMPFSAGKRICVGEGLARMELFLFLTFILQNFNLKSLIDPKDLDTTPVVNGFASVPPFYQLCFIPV

`Fc1ccccc1CCNCc1cccc(Cl)c1Cl`: at Cytochrome P450 2C9, the AC50 was 39.8 µM (inconclusive). With `FC(F)(F)c1cc(Sc2ccccc2)nc(-c2ccccn2)n1`, the half-maximal activity concentration (AC50) was 11.2 µM (inconclusive) at Cytochrome P450 2D6 and 14.1 µM (inconclusive) on Cytochrome P450 2C9. Turning to `COc1ccc(-n2nc(C(=O)NCC(=O)Nc3ccccn3)c3ccccc3c2=O)cc1`, the AC50 on Cytochrome P450 2C19 (read-out: AC50) is 3.16 µM (inconclusive); at Cytochrome P450 2C9, 1.41 µM (inconclusive). In the case of `O=C(O)Cc1ccc2ocnc2c1`, at Cytochrome P450 2C19, the AC50 result is “inconclusive”. `O=C(CSCC(=O)Nc1cccc([N+](=O)[O-])c1)Nc1ccccc1`: the IC50 in data set [1] is > 47.1 µM (inactive). The EC50 in [2] was > 53 µM (inactive). For the molecule `O=C(c1nc2nc(-c3ccc(Cl)cc3)cc(C(F)(F)F)n2n1)N1CCOCC1`, the figures for the EC50 in [3], in data set [4] and in data set [5] were 14 µM (active), 54.3 µM (active) and 15.9 µM (active), respectively. As to `Cc1cc(=O)oc(C)c1C(=O)NCc1ccccn1`, at Cytochrome P450 2C19, the AC50 result is recorded as “inconclusive”. On to `CC(C)CN(CC(C)C)S(=O)(=O)N1CCC(C(=O)NCc2ccc(F)cc2)CC1`, for which the AC50 on Cytochrome P450 2C19 (read-out: AC50) was 25.1 µM (inconclusive). Take `Oc1ccc2ccccc2c1CN(Cc1c(O)ccc2ccccc12)C1CCCCC1`: on Cytochrome P450 2C9, the AC50 is 7.94 µM (inconclusive). `c1ccc(Oc2nc(-c3ccccn3)nc3ccccc23)cc1`: the EC50 in data set [6] is 44.1 µM (active); at Streptokinase A, > 150 µM (not active); in [7], 3.8 µM (active); in [8], > 60 µM (not active); with Streptococcus, 22.5 µM (active). For the molecule `NS(=O)(=O)c1ccc(CCNC(=O)C2CCCN2C(=O)OCc2ccccc2)cc1` (stereo not drawn), the concentration at half-maximal activity (AC50) result is “inconclusive” at Cytochrome P450 2C19 and 15.8 µM (inconclusive) at Cytochrome P450 2C9.

For `CNCC/C=C\c1cccnc1`, the AC50 at Cytochrome P450 2C19 (read-out: AC50) was 20 µM (inconclusive); at Cytochrome P450 2D6 it was 15.8 µM (inconclusive); on Cytochrome P450 2C9, 39.8 µM (inconclusive). With `CCOC(=O)c1c(CC(C)C)csc1N`, the IC50 in data set [1] was > 47.1 µM (inactive). In addition, the EC50 in data set [2] is > 53 µM (inactive).

`Cc1ccc(NC(=O)CCC(=O)NNC(=O)c2ccco2)cc1C`: the results for the AC50 at Cytochrome P450 2C19 (read-out: AC50) and on Cytochrome P450 2C9 were 17.8 µM (inconclusive) and 12.6 µM (inconclusive), respectively.

For `COc1ccc(/C=C/c2c([N+](=O)[O-])c(=O)n(C)c(=O)n2C)cc1O`, the IC50 in data set [1] is > 47.1 µM (inactive). Moreover, the EC50 in [2] is > 53 µM (inactive).

Consider `CC(=O)Nc1nonc1NC(=O)c1ccc(C(C)(C)C)cc1`, for which the concentration at half-maximal activity (AC50) on Cytochrome P450 2C19 (read-out: AC50) and on Cytochrome P450 2C9 was 3.55 µM (inconclusive) in each case. Consider `COC(=O)CCCC1=CC2=C(c3ccccc3)C(=O)C(C)(OC(=O)C3CCCC3)C(=O)C2=CN1CCc1ccccn1` (stereo not drawn), for which, in data set [1], the IC50 was > 47.1 µM (inactive). Besides, in data set [2], the EC50 is > 53 µM (inactive). `O=c1[nH][nH]c(=S)c(=O)[nH]1`: the figures for the AC50 on Cytochrome P450 2C19 (read-out: AC50) and at Cytochrome P450 2C9 were 2 µM (inconclusive) and 2.51 µM (inconclusive), respectively. As for `C=CCOC(=O)C(C#N)c1nc2ccccc2nc1N1CCN(c2ccccc2OCC)CC1` (stereo not drawn), the IC50 in [1] was > 47.1 µM (inactive). Also, the EC50 in data set [2] is > 53 µM (inactive).

With `COc1ccc(-c2[nH]ncc2CN2CCC(O)(c3ccc(Cl)cc3)CC2)cc1`, the figures for the EC50 in data set [3] and in data set [5] were 18.2 µM (active) and 9.96 µM (active), respectively.

Consider `CCCn1c(C(C)NS(=O)(=O)c2ccccc2)n[nH]c1=S` (stereo not drawn), for which the IC50 in data set [1] is > 47.1 µM (inactive). Further, the EC50 in data set [2] is > 53 µM (inactive). For `COc1cccc(-c2cc(C(F)(F)F)nc(-n3cc(Cl)cn3)n2)c1`, the EC50 in data set [3], in data set [4] and in data set [5] was > 120 µM (not active) in each case.

For the molecule `CCN1C(c2ccccc2)C(C)C(=O)C(C)C1c1ccccc1` (stereo not drawn), the IC50 in [1] is > 47.1 µM (inactive). Moreover, the EC50 in data set [2] is > 53 µM (inactive). As to `CCn1c(C(=O)NC(C)c2ccc3c(c2)OCCO3)cc2sccc21` (stereo not drawn), the figures for the EC50 in data set [3], in data set [4] and in [5] were 14.2 µM (active), 15.8 µM (active) and 22.5 µM (active), respectively.

In the case of `O=C(C1CC(=O)N(c2ccc(Br)cc2)C1)N1CCCC1` (stereo not drawn), the IC50 in [1] is > 47.1 µM (inactive). In addition, the EC50 in data set [2] was > 53 µM (inactive). The like results for `C=C(C)Cn1c(=O)c2c(nc3n2CC(C)CN3Cc2ccccc2)n(C)c1=O` (stereo not drawn) were, in that order, > 47.1 µM (inactive) and > 53 µM (inactive).

Take `Cc1ccc2c(COC(=O)C3=COCCO3)cc(=O)oc2c1`: the EC50 in data set [4] was 10.5 µM (active); in [5], 8.1 µM (inconclusive). As for `Cc1cnc(CNc2ncnc3ccc(-c4ccc5c(c4)OCO5)cc23)cn1`, the AC50 on Cytochrome P450 2C19 (read-out: AC50) was 15.8 µM (inconclusive).

In the case of `O=S(=O)(c1ccc2c(c1)OCCO2)N1CCC(c2nc(O)c3nnn(Cc4ccccc4F)c3n2)CC1`, the EC50 in data set [3], in data set [4] and in data set [5] was > 120 µM (not active) in each case.

As for `C1=C(c2cccc3ccccc23)N2CCN=C2S1`, the EC50 in [3], in data set [4] and in data set [5] was > 120 µM (not active) in each case.

Consider `CCCCc1nc2ccccc2c(NC(=O)CN(CC)CC)c1CCC`, for which the IC50 in [1] is > 47.1 µM (inactive). Besides, in data set [2], the EC50 was > 53 µM (inactive). As for `Fc1ccccc1CNC(=S)Nc1ccc(Cl)cc1`, the IC50 in data set [1] is 5.53 µM (active). Further, the EC50 in data set [2] is > 53 µM (inactive). As to `CCCCCCCCCSc1nnc(N)[nH]1`, the IC50 in [1] was > 47.1 µM (inactive). In addition, the EC50 in data set [2] was > 53 µM (inactive).

Take `C=Cn1cc[n+](CC(=O)c2ccc(Cl)cc2)c1`: the IC50 in data set [1] was > 47.1 µM (inactive). In addition, the EC50 in data set [2] was > 53 µM (inactive). As for `CC(=O)N(CC(=O)O)c1ccccc1C(=O)O`, at Cytochrome P450 2C19 (read-out: AC50), the half-maximal activity concentration (AC50) was 0.0562 µM (inconclusive). The same measure, in the same setting: the value for `O=C1C=C(NCCN2CCOCC2)CC(c2ccccc2)C1` (stereo not drawn) was 39.8 µM (inconclusive). Turning to `Cc1occc1C(=O)NNC(=O)c1ccc(F)cc1`, on Cytochrome P450 2C19, the AC50 entry is “inconclusive”. Consider `CC(=O)Oc1ccc2cc(-c3cccnc3)c(=O)oc2c1`, for which the IC50 in data set [1] is > 47.1 µM (inactive). In addition, in data set [2], the EC50 was > 53 µM (inactive). On to `COc1cccc(N2CCN(S(=O)(=O)c3c(C)[nH]c(C)c3C(=O)N3CCCC3)CC2)c1`, for which, in data set [1], the IC50 was > 47.1 µM (inactive). The EC50 in data set [2] is > 53 µM (inactive). On to `O=C(OCc1cc(=O)n2ccsc2n1)C1(c2ccccc2)CC1`, for which the IC50 in data set [1] is > 47.1 µM (inactive). For the same molecule, the EC50 in data set [2] is > 53 µM (inactive).

Regarding `Nc1nc(OCc2ccccc2)c2[nH]cnc2n1` [6-O-BENZYLGUANINE], the AC50 at Cytochrome P450 2D6 was 0.501 µM (inconclusive); at Cytochrome P450 2C9 it was 39.8 µM (inconclusive). Take `CC(C)[C@H](CO)Nc1nc(Nc2cccc(Cl)c2)c2ncn(C(C)C)c2n1` [PURVALANOLA]: the AC50 at Cytochrome P450 2C9 was 39.8 µM (inconclusive).

For orientation: AC50 means the concentration giving half of the maximal activity seen.
